For the data set the following is noted: 25.0 °C.
In turn, `Clc1cc(Cl)c(-c2ccccc2)cc1Cl` gave a log10 OH rate constant (cm³/molecule/s) of -11.9. For `Clc1ccc(Cl)c(-c2cccc(Cl)c2Cl)c1`, the log10 OH rate constant (cm³/molecule/s) is -12.1. Take `Clc1ccc(-c2c(Cl)ccc(Cl)c2Cl)cc1Cl`: the log10 OH rate constant (cm³/molecule/s) is -12.2. The value for `Clc1ccc(-c2ccccc2)c(Cl)c1` was -11.6; that for `Clc1c(Cl)c(Cl)c(-c2ccccc2)c(Cl)c1Cl` was -12; that for `Clc1ccc(-c2ccccc2Cl)cc1Cl` was -12. In the case of `Clc1ccc(-c2ccc(Cl)cc2Cl)c(Cl)c1` it was -12; in that of `Clc1ccc(-c2cc(Cl)ccc2Cl)cc1`, -11.9; in that of `Clc1ccc(Cl)c(-c2c(Cl)ccc(Cl)c2Cl)c1`, -12.4.

On to `Clc1ccc(-c2ccc(Cl)cc2Cl)cc1`, for which the log10 OH rate constant (cm³/molecule/s) is -12.

Values taken from the OPERA property sets (Mansouri et al. 2018).
